US8669255B2, “Substituted octahydropyrrolo[1,2-a]pyrazines as calcium channel blockers” (AbbVie Inc., priority 2011, dated 2014)

Tested on: neuropathic pain (chronic constriction injury, CCI)
Assay: In vivo assessment of analgesic effect against neuropathic pain (Bennett model, chronic constriction injury, tactile allodynia with von Frey filaments)
Conditions: Rattus norvegicus, po, 1 h, male Sprague Dawley rats, 10 mg/kg orally, mechanical allodynia 60 minutes following administration, percentage of maximum possible effect from log g PWT, read-out: % MPE
Description: (ii) Vivo Assessment of Analgesic Effect Against Neuropathic Pain (Bennett Model)
Animals were prepared for testing, by use of a surgical procedure that induces neuropathic pain in one paw. IACUC guidelines for rodent survival surgery were followed. All surgical procedures were conducted on a clean, uncluttered surgical station. The area was wiped with a 70% ethanol solution before and after use. All instruments were sterilized by either autoclave or chemical sterilant (such as 2% glutaraldehyde>10 hours). Surgeons wore sterile gloves (for the initial procedure), clean lab coat or scrubs, hairnet or cap, and a half-mask respirator (when not working under a hood). Surgeons thoroughly washed their hands prior to donning sterile gloves. Gloves were disinfected in-between animals by cleansing with povidone iodine, chlorhexidine or 70% alcohol for at least 30 seconds. If multiple surgeries were performed, the instruments were cleaned and sterilized between procedures with hot glass beads (>10 seconds). To prevent thermal or chemical burns, the instruments were cooled by rinsing in sterile saline before use.
Male, Sprague Dawley® rats, 175-200 g were used for surgeries. To minimize post-operative dehydration/maintain blood volume during the surgery, warmed sterile saline or Lactate Ringers solution at 10-15 mL/kg was administered subcutaneously immediately before or after surgery. This facilitates better renal function and presumably anesthesia product excretion post surgery. For all surgical procedures, anesthesia was induced with 4-5% isoflurane. Anesthesia was maintained during surgery with 1-3% isoflurane. Following induction, the surgical site was carefully shaved and the exposed area was aseptically prepared with povidone-iodine scrub solution and 70% ethanol 2-3 times.
Chronic constriction injury (CCI), a model of neuropathic pain, was produced by following the method of Bennett and Xie (Bennett, G., et al. Pain, 1988, 33, 87-107). After site sterilization and anesthetic procedures outline above were completed, a 1.5 cm incision is made at the mid-thigh level to expose the biceps femoris and gluteous superficialis (right side), which were then separated by blunt dissection. The common sciatic nerve was exposed, isolated, and loosely ligated by four 5-0 chromic gut ligatures with <1 mm spacing between each. The surgical site was closed in layers—muscle is closed with 6.0 absorbable sutures, and the skin closed with wound clips. Animals were allowed to recover on a warming plate and were returned to their home cages when fully ambulatory. Animals were not be used for testing until at least 10 days following surgery.
To measure mechanical sensitivity, tactile allodynia was measured using calibrated von Frey filaments (Stoelting, Wood Dale, Ill.) as described by Chaplan et al. (Chaplan S., et al. J of Neuroscience Methods 1994, 53, 55-63). Filament strengths used were: 0.4, 0.6, 1.0, 2, 4, 6, 8, and 15 g. Rats were placed into inverted individual plastic containers (20×12.5×20 cm) on top of a suspended wire mesh grid, and acclimated to the test chambers for at least 20 minutes. Filaments were applied perpendicular to the mid-plantar paw surface with enough force to cause slight buckling and held in place for 6-8 seconds. Positive responses included an abrupt withdrawal of the paw from the stimulus or flinching behavior immediately following removal of the stimulus. The maximum force applied was 15 g. The 50% paw withdrawal threshold (PWT) was calculated in grams (g) using the up-down method of Dixon (Dixon W. Ann Rev Pharmacol Toxicol 1980, 20, 441-462). […] All compounds were orally administered at 10 mg/kg in 10% dimethyl sulfoxide/polyethylene glycol at a volume of 2.0 mL/kg, and mechanical allodynia was determined 60 minutes following compound administration. […]

SMILES	inhibition in vivo at 10 mg/kg [%]
O=C(c1ccc(F)c(C(F)(F)F)c1)N1CCN2C[C@H](Oc3cnc(C4CC4)cn3)C[C@H]2C1 [Example 55, [(7R,8aS)-7-[(5-cyclopropylpyrazin-2-yl)oxy]hexahydropyrrolo[1,2-a]-pyrazin-2(1H)-yl][4-fluoro-3-(trifluoromethyl)phenyl]methanone]	31
O=C(c1cccc(C(F)(F)F)c1)N1CCN2C[C@H](Oc3cnc(C4CC4)cn3)C[C@H]2C1 [Example 68, [(7R,8aS)-7-[(5-cyclopropylpyrazin-2-yl)oxy]hexahydropyrrolo[1,2-a]-pyrazin-2(1H)-yl][3-(trifluoromethyl)phenyl]methanone]	28
O=C(c1cc(C(F)(F)F)ccc1Cl)N1CCN2C[C@H](Oc3cnc(C4CC4)cn3)C[C@H]2C1 [Example 72, [2-chloro-5-(trifluoromethyl)phenyl][(7R,8aS)-7-[(5-cyclopropylpyrazin-2-yl)oxy]hexahydropyrrolo[1,2-a]pyrazin-2(1H)-yl]methanone]	20
O=C(c1cc(F)c(Cl)cc1F)N1CCN2C[C@H](Oc3cnc(C4CC4)cn3)C[C@H]2C1 [Example 73, (4-chloro-2,5-difluorophenyl)[(7R,8aS)-7-[(5-cyclopropylpyrazin-2-yl)-oxy]hexahydropyrrolo[1,2-a]pyrazin-2(1H)-yl]methanone]	48
O=C(c1cccc(C(F)(F)F)c1F)N1CCN2C[C@H](Oc3cnc(C4CC4)cn3)C[C@H]2C1 [Example 80, [(7R,8aS)-7-[(5-cyclopropylpyrazin-2-yl)oxy]hexahydropyrrolo[1,2-a]-pyrazin-2(1H)-yl][2-fluoro-3-(trifluoromethyl)phenyl]methanone]	31
O=C(c1cccc(OC(F)(F)F)c1)N1CCN2C[C@H](Oc3cnc(C4CC4)cn3)C[C@H]2C1 [Example 81, [(7R,8aS)-7-[(5-cyclopropylpyrazin-2-yl)oxy]hexahydropyrrolo[1,2-a]-pyrazin-2(1H)-yl][3-(trifluoromethoxy)phenyl]methanone]	39
O=C(/C=C/c1ccc(F)c(C(F)(F)F)c1)N1CCN2C[C@H](Oc3cnc(C4CC4)cn3)C[C@H]2C1 [Example 154, (2E)-1-[(7R,8aS)-7-[(5-cyclopropylpyrazin-2-yl)oxy]hexahydropyrrolo[1,2-a]pyrazin-2(1H)-yl]-3-[4-fluoro-3-(trifluoromethyl)phenyl]prop-2-en-1-one]	0
O=C(c1cccc(C(F)(F)F)c1)N1CC(=O)N2C[C@H](Oc3cnc(C4CC4)cn3)C[C@H]2C1 [Example 178, (7R,8aS)-7-[(5-cyclopropylpyrazin-2-yl)oxy]-2-[3-(trifluoromethyl)-benzoyl]hexahydropyrrolo[1,2-a]pyrazin-4(1H)-one]	28
CN[C@H](C(=O)N1CCN2C[C@H](Oc3cnc(C4CC4)cn3)C[C@H]2C1)c1cccc(C(F)(F)F)c1 [Example 186, (2S)-1-[(7R,8aS)-7-[(5-cyclopropylpyrazin-2-yl)oxy]hexahydropyrrolo[1,2-a]pyrazin-2(1H)-yl]-2-(methylamino)-2-[3-(trifluoromethyl)phenyl]ethanone]	91
CN[C@@H](C(=O)N1CCN2C[C@H](Oc3cnc(C4CC4)cn3)C[C@H]2C1)c1cccc(C(F)(F)F)c1 [Example 187, (2R)-1-[(7R,8aS)-7-[(5-cyclopropylpyrazin-2-yl)oxy]hexahydropyrrolo[1,2-a]pyrazin-2(1H)-yl]-2-(methylamino)-2-[3-(trifluoromethyl)phenyl]ethanone]	67
